For this data set the following is noted: ester bond, 2,4,6-trichlorobenzoyl chloride / Et3N / DMAP, toluene, 2 steps.

Where two headings read alike, the source gives them in different places.

In the case of `C=C/C=C\[C@H](C)[C@@H]1OC(=O)/C=C\C=C\[C@H](C)[C@@H](O[Si](C)(C)C(C)(C)C)C[C@H](O[Si](C)(C)C(C)(C)C)/C=C\[C@H](C)[C@H](O[Si](C)(C)C(C)(C)C)[C@H](C)C[C@@H](C)CC[C@@H](O[Si](C)(C)C(C)(C)C)C1C` (stereo in doubt), under “from C=C/C=C\[C@H](C)[C@H](O)[C@@H](C)[C@@H](CC[C@H](C)C[C@@H](C)[C@@H](O[Si](C)(C)C(C)(C)C)[C@@H](C)/C=C\[C@H](C[C@H](O[Si](C)(C)C(C)(C)C)[C@@H](C)/C=C/C=C\C(=O)O)O[Si](C)(C)C(C)(C)C)O[Si](C)(C)C(C)(C)C, 1.94 mM, 25.0 °C, 16.0 h”, the ring closure, yield of all isomers amounted to 78%.
On to `C=C/C=C\[C@H](C)[C@@H]1OC(=O)/C=C\C=C\[C@@H](C)[C@@H](O[Si](C)(C)C(C)(C)C)C[C@H](O[Si](C)(C)C(C)(C)C)/C=C\[C@H](C)[C@H](O[Si](C)(C)C(C)(C)C)[C@@H](C)CCCC[C@@H](O[Si](C)(C)C(C)(C)C)[C@@H]1C`, for which, under “from C=C/C=C\[C@H](C)[C@H](O)[C@@H](C)[C@@H](CCCC[C@H](C)[C@@H](O[Si](C)(C)C(C)(C)C)[C@@H](C)/C=C\[C@H](C[C@H](O[Si](C)(C)C(C)(C)C)[C@H](C)/C=C/C=C\C(=O)O)O[Si](C)(C)C(C)(C)C)O[Si](C)(C)C(C)(C)C, 2.0 mM”, the ring closure, yield of all isomers is 76%.

These data come from US7321046B2, “Analogs of dictyostatin, intermediates therefor and methods of synthesis thereof” (University of Pittsburgh, priority 2002, dated 2008).
